Data on one molecule can be found in patent publication US10202391B2, “Chemical compounds” (AstraZeneca AB, priority 2015, dated 2019).

This assay deals with phospho-p90RSK in A375 cell line. The assay is described as follows: A375 Phospho-p90RSK Cellular Assay. Type of assay: cell-based, human. The note with it: Homo sapiens, A-375, 2 h, A375 cells, 2 hours incubation. Put shortly:
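A375 cells (2400/well, DMEM/10% FCS) seeded overnight, then dosed over a 12-point range from 30 μM down to 0.00003 μM (0.3% DMSO) for 2 h at 37 °C. Fixed cells were immunostained for phospho-p90RSK Thr359 with Hoechst nuclear counterstain and read by high-content imaging; IC50s fitted from dose-response.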

`COC[C@H]1Cn2cc(-c3nc(Nc4ccnn4C)ncc3C)nc2C(=O)N1Cc1ccc(F)c(F)c1` [Example 18, (R)-7-(3,4-Difluorobenzyl)-6-(methoxymethyl)-2-(5-methyl-2-((1-methyl-1H-pyrazol-5-yl)amino)pyrimidin-4-yl)-6,7-dihydroimidazo[1,2-a]pyrazin-8(5H)-one] registered an IC50 of 5.7 nM.

Broadly, the IC50 is the concentration at which inhibition is half-maximal.
